Reference: patent publication US20120245137A1 (Zalicus Pharmaceuticals Ltd., priority 2009, published 2012)
Read-outs that look alike come from different tables or passages of the source.

Tests used:
Assay type in all cases: cell-based
T-type calcium channel = T-type calcium channel (Homo sapiens, UniProt O95180); test: T-type channel blocking, FLIPR data (Table 6); conditions: for CAv3.2 IC50 Ratio closed/inact.: CAv3.2, ratio closed/inactivated IC50
Text: Another method, high-throughput spectrophotometric assay, utilizes loading of the cell lines with a fluorescent dye sensitive to intracellular calcium concentration and subsequent examination of the effects of compounds on the ability of depolarization by potassium chloride or other means to alter intracellular calcium levels.

Human Cav 2.2 channels = Human Cav 2.2 channels (Homo sapiens, UniProt Q00975); test: Fluorescent assay for CaV2.2 channels using potassium depolarization (VIPR/FLIPR); conditions: FLIPR data; for CAv2.2 IC50 Ratio closed/inact.: ratio closed/inactivated IC50
Text: Human Cav 2.2 channels were stably expressed in HEK293 cells along with alpha2-delta and beta subunits of voltage-gated calcium channels. An inwardly rectifying potassium channel (Kir2.3) was also expressed in these cells to allow more precise control of the cell membrane potential by extracellular potassium concentration. At low bath potassium concentration, the membrane potential is relatively negative, and is depolarized as the bath potassium concentration is raised. In this way, the bath potassium concentration can be used to regulate the voltage-dependent conformations of the channels. […] After the incubation period, Cav2.2 channel opening is triggered by addition of higher concentration of potassium (70 mM final concentration) to further depolarize the cell. The degree of state-dependent block can be estimated from the inhibitory potency of compounds after incubation in different potassium concentrations.
Calcium influx through Cav 2.2 channels is determined using a calcium sensitive fluorescent dye in combination with a fluorescent plate reader. Fluorescent changes were measured with either a VIPR (Aurora Instruments) or FLIPR (Molecular Devices) plate reader.
1. Seed cells in Poly-D-Lysine Coated 96 or 384-well plate and keep in a 3rC-IO % C02 incubator overnight.
2. Remove media, wash cells with 0.2 mL (96-well plate) or 0.05 mL (384-well plate) Dulbecco's Phosphate Buffered Saline (D-PBS) with calcium & magnesium (Invitrogen; 14040).
3. Add 0.1 mL (96-well plate) or 0.05 mL (384-well plate) of 4˜M fluor-4 (Molecular Probes; F-14202) and 0.02% Pluronic acid (Molecular Probes; P-3(00) prepared in D-PBS with calcium & magnesium (Invitrogen; 14040) supplemented with 10 mM Glucose & 10 mM HepeslNaOH; pH 7.4.
4. Incubate in the dark at 25° C. for 60-70 min.
5. Remove dye, wash cells with 0.1 mL (96-well plate) or 0.06 mL (384-well plate) of 4, 12, 25, or 30 mM Potassium Pre-polarization Buffer (PPB).
6. Add 0.1 mL (96-well plate) or 0.03 mL (384-well plate) of 4, 12, 25, 30 mM PPB with or without test compound.
7. Incubate in the dark at 25° C. for 30 min
8. Read cell plate on VIPR instrument, Excitation=480 nm, Emission=535 nm.
9. With VIPR continuously reading, add 0.1 mL (96-well plate) or 0.03 mL (384-well plate) of Depolarization Buffer (DB), which is 2× the final assay concentration, to the cell plate.

CAv1.2 = CAv1.2 (Homo sapiens, UniProt Q13936); test: FLIPR data, CAv1.2 channel blocking (Table 6)
[1] = CAv3.2, closed state, read-out: CAv3.2 IC50 Closed
[2] = CAv3.2, inactivated state, read-out: CAv3.2 IC50 Inact.
[3] = closed state, read-out: CAv2.2 IC50 Closed
[4] = inactivated state, read-out: CAv2.2 IC50 Inact.
[5] = inactivated state, read-out: CAv1.2 IC50 Inact.
[6] = closed state, read-out: CAv1.2 IC50 Closed

Chain of Human Cav 2.2 channels (Q00975 whole entry): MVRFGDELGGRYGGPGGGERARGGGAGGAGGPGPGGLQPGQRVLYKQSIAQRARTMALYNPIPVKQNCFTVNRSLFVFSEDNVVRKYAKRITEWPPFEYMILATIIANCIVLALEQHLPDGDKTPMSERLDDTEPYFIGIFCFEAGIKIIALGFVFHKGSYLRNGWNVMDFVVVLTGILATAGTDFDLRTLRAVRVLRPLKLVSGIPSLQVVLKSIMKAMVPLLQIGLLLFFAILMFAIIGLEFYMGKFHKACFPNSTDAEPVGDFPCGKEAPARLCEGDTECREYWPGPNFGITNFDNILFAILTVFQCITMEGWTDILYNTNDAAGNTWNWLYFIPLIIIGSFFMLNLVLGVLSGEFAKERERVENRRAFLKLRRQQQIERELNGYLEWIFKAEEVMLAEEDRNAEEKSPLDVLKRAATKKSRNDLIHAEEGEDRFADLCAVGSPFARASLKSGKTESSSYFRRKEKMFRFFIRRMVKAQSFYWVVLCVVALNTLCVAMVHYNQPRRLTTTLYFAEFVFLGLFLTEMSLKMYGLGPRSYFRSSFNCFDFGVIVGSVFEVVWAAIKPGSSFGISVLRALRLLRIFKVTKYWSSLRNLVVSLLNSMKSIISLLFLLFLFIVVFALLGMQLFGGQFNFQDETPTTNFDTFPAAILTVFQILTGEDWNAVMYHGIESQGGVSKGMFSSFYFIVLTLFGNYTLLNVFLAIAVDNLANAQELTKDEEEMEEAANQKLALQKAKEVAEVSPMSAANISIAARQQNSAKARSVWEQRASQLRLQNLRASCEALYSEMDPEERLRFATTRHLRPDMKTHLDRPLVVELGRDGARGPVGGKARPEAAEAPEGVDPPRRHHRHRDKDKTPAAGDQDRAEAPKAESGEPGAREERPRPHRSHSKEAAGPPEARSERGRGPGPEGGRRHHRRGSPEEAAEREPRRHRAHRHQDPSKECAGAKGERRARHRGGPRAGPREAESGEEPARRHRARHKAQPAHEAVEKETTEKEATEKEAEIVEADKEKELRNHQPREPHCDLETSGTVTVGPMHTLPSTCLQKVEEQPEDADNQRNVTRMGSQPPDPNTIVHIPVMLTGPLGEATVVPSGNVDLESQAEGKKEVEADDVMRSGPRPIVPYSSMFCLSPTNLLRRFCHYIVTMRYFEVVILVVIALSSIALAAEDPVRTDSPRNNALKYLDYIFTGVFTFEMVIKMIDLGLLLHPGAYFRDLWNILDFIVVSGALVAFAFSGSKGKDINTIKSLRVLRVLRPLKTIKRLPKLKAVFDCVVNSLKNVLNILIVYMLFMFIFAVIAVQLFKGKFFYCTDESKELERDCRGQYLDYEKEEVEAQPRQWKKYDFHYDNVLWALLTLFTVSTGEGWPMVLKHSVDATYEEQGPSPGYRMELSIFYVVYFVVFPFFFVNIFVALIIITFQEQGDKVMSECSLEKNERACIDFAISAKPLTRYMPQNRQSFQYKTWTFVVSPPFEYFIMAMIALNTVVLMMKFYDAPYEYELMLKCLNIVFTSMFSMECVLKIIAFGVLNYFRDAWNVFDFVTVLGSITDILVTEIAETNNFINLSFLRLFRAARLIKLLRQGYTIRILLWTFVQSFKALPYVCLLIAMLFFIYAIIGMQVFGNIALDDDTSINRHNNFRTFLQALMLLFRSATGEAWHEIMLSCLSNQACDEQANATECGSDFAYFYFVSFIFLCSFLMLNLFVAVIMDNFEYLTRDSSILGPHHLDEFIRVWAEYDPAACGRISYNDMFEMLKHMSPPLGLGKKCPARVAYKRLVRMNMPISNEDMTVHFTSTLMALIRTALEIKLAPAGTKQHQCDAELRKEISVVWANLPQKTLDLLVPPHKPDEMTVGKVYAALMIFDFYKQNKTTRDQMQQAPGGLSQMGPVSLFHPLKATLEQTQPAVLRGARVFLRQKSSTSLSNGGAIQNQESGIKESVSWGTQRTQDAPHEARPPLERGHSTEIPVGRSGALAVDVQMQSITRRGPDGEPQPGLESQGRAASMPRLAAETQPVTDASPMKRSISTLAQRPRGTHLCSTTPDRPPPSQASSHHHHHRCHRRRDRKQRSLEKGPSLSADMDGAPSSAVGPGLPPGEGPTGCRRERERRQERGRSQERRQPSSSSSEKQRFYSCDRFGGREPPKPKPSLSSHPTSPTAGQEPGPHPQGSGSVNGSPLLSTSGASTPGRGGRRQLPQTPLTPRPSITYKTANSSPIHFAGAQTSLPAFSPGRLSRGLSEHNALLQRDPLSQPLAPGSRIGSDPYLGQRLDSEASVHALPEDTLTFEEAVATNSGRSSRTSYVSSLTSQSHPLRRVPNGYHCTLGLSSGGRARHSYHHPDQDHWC
Chain of Human Cav 2.2 channels (P54289 25-1103 partner): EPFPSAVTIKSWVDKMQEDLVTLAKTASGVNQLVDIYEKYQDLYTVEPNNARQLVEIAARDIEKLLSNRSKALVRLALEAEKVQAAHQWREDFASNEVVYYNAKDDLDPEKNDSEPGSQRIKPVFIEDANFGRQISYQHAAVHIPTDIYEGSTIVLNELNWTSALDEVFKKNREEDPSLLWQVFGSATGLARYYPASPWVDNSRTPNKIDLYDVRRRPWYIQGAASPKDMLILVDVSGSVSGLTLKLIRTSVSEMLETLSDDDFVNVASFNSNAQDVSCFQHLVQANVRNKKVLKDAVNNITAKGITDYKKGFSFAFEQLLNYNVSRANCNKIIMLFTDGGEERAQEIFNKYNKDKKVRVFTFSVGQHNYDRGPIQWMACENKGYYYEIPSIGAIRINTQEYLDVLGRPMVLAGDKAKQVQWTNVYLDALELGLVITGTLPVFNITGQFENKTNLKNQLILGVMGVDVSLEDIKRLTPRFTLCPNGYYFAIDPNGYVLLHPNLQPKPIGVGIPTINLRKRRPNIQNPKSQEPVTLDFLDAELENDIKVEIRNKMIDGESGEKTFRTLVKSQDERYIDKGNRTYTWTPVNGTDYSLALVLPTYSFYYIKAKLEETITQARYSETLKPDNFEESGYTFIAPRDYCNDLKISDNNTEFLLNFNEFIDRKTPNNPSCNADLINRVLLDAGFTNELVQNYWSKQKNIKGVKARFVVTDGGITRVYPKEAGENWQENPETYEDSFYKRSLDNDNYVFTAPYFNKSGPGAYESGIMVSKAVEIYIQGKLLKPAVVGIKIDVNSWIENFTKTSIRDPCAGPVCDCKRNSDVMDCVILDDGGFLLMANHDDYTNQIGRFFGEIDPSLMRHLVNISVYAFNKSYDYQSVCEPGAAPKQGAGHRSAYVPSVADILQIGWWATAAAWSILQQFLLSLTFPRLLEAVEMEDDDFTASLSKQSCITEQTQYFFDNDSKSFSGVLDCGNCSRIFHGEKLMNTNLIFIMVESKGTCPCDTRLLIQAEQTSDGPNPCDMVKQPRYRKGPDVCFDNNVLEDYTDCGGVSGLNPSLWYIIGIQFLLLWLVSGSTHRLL
Chain of Human Cav 2.2 channels (P54284 whole entry partner): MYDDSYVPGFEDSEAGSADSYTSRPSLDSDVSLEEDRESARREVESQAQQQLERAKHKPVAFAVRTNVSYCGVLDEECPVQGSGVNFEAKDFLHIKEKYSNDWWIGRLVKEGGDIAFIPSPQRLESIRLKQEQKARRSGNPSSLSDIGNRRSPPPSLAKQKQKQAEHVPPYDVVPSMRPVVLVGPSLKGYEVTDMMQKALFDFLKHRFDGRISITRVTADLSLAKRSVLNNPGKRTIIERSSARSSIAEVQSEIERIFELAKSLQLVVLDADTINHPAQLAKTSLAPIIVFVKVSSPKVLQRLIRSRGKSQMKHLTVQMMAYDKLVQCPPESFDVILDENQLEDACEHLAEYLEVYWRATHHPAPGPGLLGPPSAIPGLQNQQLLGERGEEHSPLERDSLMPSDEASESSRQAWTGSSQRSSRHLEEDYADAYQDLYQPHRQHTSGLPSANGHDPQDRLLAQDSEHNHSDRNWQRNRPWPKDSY

SMILES | IC50 (T-type calcium channel; [1]) [µM] | IC50 (T-type calcium channel; [2]) [µM] | CAv3.2 IC50 Ratio closed/inact. (T-type calcium channel) | IC50 (Human Cav 2.2 channels; [3]) [µM] | IC50 (Human Cav 2.2 channels; [4]) [µM] | CAv2.2 IC50 Ratio closed/inact. (Human Cav 2.2 channels) | IC50 (CAv1.2; [5]) [µM] | IC50 (CAv1.2; [6]) [µM]
CC(C)([C@H]1C[C@@H](NC(=O)c2ncc(C(F)(F)F)cc2S(C)(=O)=O)C1)S(=O)(=O)c1cccc(OC(F)(F)F)c1 [Compound 644] | ≥ 10 | 10 | 1 | 10 | 0.9 | 11.1 | ≥ 10 | –
CC(C)([C@H]1C[C@H](NC(=O)CC2(N)CCCCC2)C1)S(=O)(=O)c1cc(F)cc(C(F)(F)F)c1 [Compound 654] | – | 10 | – | 8.47 | 1.44 | 5.9 | ≥ 10 | ≥ 10
CC(C)([C@H]1C[C@@H](NC(=O)CC2(N)CCCCC2)C1)S(=O)(=O)c1cccc(OC(F)(F)F)c1 [Compound 655] | – | 10 | – | 6.52 | 1.16 | 5.6 | ≥ 10 | ≥ 10
CC(C)([C@H]1C[C@H](NC(=O)CC2(N)CCCCC2)C1)S(=O)(=O)c1cccc(OC(F)(F)F)c1 [Compound 656] | – | 10 | – | 5.52 | 0.87 | 6.3 | ≥ 10 | ≥ 10
CNC1(CC(=O)N[C@H]2C[C@@H](C(C)(C)S(=O)(=O)c3cc(F)cc(C(F)(F)F)c3)C2)CCCCC1 [Compound 658] | ≥ 10 | 10 | 1 | 10 | 2.64 | 3.8 | – | ≥ 10
CNC1(CC(=O)N[C@H]2C[C@H](C(C)(C)S(=O)(=O)c3cc(F)cc(C(F)(F)F)c3)C2)CCCCC1 [Compound 659] | – | 10 | – | 9.71 | 1.93 | 5 | ≥ 10 | ≥ 10
CNC1(CC(=O)N[C@H]2C[C@@H](C(C)(C)S(=O)(=O)c3cccc(OC(F)(F)F)c3)C2)CCCCC1 [Compound 661] | – | 10 | – | 8.03 | 1.53 | 5.2 | ≥ 10 | ≥ 10
CNC1(CC(=O)N[C@H]2C[C@H](C(C)(C)S(=O)(=O)c3cccc(OC(F)(F)F)c3)C2)CCCCC1 [Compound 662] | – | 10 | – | 5.65 | 1.25 | 4.5 | ≥ 10 | ≥ 10
O=C(NC[C@H]1C[C@H](S(=O)(=O)c2cccc(OC(F)(F)F)c2)C1)c1ccnc(C(F)(F)F)n1 [Compound 697] | ≥ 10 | 8.91 | 1.1 | 3.78 | 0.71 | 5.3 | ≥ 10 | ≥ 10
O=C(NC[C@H]1C[C@H](S(=O)(=O)c2cccc(OC(F)(F)F)c2)C1)c1ccc(OCC(F)(F)F)nc1 [Compound 699] | ≥ 10 | – | 1 | 7.86 | – | 3.1 | – | ≥ 10
CS(=O)(=O)c1cc(C(F)(F)F)cnc1C(=O)NC[C@H]1C[C@H](S(=O)(=O)c2cc(F)cc(C(F)(F)F)c2)C1 [Compound 701] | – | 10 | – | 10 | 2.21 | 4.5 | ≥ 10 | –
NC1(CC(=O)NC[C@H]2C[C@H](S(=O)(=O)c3cc(F)cc(C(F)(F)F)c3)C2)CCCCC1 [Compound 708] | – | 10 | – | 7.67 | 3.03 | 2.5 | ≥ 10 | ≥ 10
N[C@H]1CCCCC1C(=O)NC[C@H]1C[C@H](S(=O)(=O)c2cccc(OC(F)(F)F)c2)C1 (some centres unmarked) [Compound 709] | ≥ 10 | 10 | 1 | 7.5 | 2.34 | 3.2 | – | ≥ 10
N[C@H]1CCCC[C@@H]1C(=O)NC[C@H]1C[C@H](S(=O)(=O)c2cc(F)cc(C(F)(F)F)c2)C1 [Compound 712] | – | 10 | – | 10 | 6.02 | 1.7 | ≥ 10 | ≥ 10
N[C@@H]1CCCC[C@H]1C(=O)NC[C@H]1C[C@H](S(=O)(=O)c2cccc(OC(F)(F)F)c2)C1 [Compound 714] | ≥ 10 | 10 | 1 | 5.77 | 2.29 | 2.5 | – | ≥ 10
CS(=O)(=O)c1cc(Cl)ccc1C(=O)NC[C@H]1C[C@H](S(=O)(=O)c2cc(F)cc(C(F)(F)F)c2)C1 [Compound 715] | ≥ 10 | 7.51 | 1.3 | 10 | 1.38 | 7.2 | ≥ 10 | ≥ 10
CC(C)(C[C@H]1C[C@H](NC(=O)c2ncc(C(F)(F)F)cc2S(C)(=O)=O)C1)S(=O)(=O)c1cccc(C(F)(F)F)c1 [Compound 717] | ≥ 10 | 9.98 | 1 | 8.63 | 0.49 | 17.6 | ≥ 10 | ≥ 10
CC(C)(C[C@H]1C[C@H](NC(=O)CC2(N)CCCCC2)C1)S(=O)(=O)c1cccc(C(F)(F)F)c1 [Compound 726] | ≥ 10 | 10 | 1 | 2.77 | 0.9 | 3.1 | ≥ 10 | ≥ 10
CC(C)(C[C@H]1C[C@H](NC(=O)[C@@H]2CCCC[C@@H]2N)C1)S(=O)(=O)c1cccc(C(F)(F)F)c1 [Compound 727] | – | 10 | – | 4.1 | 0.95 | 4.3 | ≥ 10 | –
CC(C)(C[C@H]1C[C@H](NC(=O)[C@@H]2CCCC[C@H]2N)C1)S(=O)(=O)c1cccc(C(F)(F)F)c1 [Compound 728] | – | 10 | – | 3.64 | 1.56 | 2.3 | – | ≥ 10
